In paper PMC12013712, “The protein kinases KIPK and KIPK-LIKE1 suppress overbending during negative hypocotyl gravitropic growth in Arabidopsis” (The Plant Cell, 2025):

Legend:
KIPKL1 = target: T1, KIPKL1 (Arabidopsis thaliana, UniProt Q9SJM3); test: in vitro phosphorylation of GST-PIN3CL, autoradiography; assay type: biochemical; details: MBP fusion; 100 µM ATP with [γ-32P]ATP, labelled compound; 5 mM MgCl2, pH 7.5, 30 °C, 1 h
T1 construct: gene KIPK2; GST fusion (PIP strips) or MBP fusion (phosphorylation), tags kept, from E. coli Rosetta (DE3)
T1 sequence (Q9SJM3 1-949): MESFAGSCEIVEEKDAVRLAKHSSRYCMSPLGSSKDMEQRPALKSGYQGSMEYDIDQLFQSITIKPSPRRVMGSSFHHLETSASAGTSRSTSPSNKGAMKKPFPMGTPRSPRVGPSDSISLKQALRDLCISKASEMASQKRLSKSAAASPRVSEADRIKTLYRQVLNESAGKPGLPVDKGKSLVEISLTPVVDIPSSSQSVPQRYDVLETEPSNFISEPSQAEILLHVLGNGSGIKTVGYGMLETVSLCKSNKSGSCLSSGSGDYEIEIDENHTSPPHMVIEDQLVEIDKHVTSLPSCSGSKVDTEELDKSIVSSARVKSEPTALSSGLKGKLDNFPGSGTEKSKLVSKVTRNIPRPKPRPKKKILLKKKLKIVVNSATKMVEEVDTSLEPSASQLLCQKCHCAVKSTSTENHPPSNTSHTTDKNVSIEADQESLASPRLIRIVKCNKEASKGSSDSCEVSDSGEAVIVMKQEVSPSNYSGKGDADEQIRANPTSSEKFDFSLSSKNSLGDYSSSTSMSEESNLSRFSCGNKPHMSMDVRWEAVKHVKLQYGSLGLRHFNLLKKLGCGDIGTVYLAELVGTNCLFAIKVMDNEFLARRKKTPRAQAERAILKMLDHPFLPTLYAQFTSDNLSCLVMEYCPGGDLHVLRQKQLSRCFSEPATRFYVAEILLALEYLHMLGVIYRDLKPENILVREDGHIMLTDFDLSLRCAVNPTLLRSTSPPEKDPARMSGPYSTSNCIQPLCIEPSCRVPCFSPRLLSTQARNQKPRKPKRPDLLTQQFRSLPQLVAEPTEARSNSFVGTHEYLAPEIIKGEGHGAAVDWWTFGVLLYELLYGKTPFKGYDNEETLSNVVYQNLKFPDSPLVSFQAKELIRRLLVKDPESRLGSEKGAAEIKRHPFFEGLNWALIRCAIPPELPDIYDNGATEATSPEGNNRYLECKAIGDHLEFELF

KIPK = target: T2, KIPK (Arabidopsis thaliana, UniProt Q9LFA2); test: as above; assay type: biochemical; details: MBP fusion; 100 µM ATP with [γ-32P]ATP, labelled compound; 5 mM MgCl2, pH 7.5, 30 °C, 1 h
T2 construct: gene KIPK1; GST fusion (PIP strips) or MBP fusion (phosphorylation), tags kept, from E. coli Rosetta (DE3)
T2 sequence (Q9LFA2 1-934): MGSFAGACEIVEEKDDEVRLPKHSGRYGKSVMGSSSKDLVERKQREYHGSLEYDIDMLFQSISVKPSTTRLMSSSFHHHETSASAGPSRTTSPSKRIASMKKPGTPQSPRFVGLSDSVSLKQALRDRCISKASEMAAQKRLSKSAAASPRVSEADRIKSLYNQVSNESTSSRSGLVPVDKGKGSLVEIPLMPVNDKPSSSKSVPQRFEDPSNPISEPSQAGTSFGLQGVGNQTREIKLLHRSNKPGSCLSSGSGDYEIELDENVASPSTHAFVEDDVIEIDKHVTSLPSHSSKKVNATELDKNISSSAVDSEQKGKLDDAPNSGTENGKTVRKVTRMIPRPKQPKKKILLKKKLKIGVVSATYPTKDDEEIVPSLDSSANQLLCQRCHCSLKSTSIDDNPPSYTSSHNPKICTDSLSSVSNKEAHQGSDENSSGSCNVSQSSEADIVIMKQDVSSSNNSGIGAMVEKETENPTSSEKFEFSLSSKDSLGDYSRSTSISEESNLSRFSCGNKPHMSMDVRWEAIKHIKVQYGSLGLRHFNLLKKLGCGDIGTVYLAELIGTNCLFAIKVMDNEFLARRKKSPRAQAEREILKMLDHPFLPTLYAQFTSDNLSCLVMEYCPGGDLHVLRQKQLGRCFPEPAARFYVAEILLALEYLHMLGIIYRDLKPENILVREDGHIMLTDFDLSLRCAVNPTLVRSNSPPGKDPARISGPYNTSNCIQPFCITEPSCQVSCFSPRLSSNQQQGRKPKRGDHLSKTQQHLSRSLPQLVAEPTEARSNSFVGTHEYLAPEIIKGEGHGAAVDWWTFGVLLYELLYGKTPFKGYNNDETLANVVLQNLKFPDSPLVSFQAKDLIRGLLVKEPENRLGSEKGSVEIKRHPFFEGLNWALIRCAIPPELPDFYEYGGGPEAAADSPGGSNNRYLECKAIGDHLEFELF

KIPKL2 = target: T3, KIPKL2 (Arabidopsis thaliana, UniProt Q9LZS4); test: as above; assay type: biochemical; details: MBP fusion; 100 µM ATP with [γ-32P]ATP, labelled compound; 5 mM MgCl2, pH 7.5, 30 °C, 1 h
T3 construct: gene AGC1-8; GST fusion (PIP strips) or MBP fusion (phosphorylation), tags kept, from E. coli Rosetta (DE3)
T3 sequence (Q9LZS4 1-926): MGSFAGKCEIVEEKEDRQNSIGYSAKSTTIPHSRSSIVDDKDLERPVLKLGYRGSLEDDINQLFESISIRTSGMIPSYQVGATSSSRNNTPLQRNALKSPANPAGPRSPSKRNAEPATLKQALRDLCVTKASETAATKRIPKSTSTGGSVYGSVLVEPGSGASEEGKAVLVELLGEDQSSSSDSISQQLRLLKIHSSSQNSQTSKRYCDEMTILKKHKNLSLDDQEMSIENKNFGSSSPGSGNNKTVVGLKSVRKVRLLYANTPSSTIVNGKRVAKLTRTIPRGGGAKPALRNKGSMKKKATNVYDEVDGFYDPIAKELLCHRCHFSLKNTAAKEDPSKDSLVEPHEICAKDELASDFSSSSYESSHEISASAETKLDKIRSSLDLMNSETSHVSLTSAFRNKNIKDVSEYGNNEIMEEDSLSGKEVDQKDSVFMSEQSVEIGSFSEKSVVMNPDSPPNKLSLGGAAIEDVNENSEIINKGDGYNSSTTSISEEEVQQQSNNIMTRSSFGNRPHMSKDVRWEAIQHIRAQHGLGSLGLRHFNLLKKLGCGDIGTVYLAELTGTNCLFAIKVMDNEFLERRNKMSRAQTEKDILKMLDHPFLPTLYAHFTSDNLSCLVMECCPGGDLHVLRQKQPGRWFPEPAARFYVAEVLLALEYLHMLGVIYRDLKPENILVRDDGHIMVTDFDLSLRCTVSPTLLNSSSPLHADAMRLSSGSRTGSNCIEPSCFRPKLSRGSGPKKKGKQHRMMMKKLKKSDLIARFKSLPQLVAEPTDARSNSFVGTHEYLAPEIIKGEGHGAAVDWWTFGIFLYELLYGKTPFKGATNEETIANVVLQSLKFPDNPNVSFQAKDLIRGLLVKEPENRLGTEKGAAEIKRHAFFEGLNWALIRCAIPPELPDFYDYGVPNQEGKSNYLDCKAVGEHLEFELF

PIN3 = target: T4, PIN3 (Arabidopsis thaliana, UniProt Q9S7Z8); test: [3H]-IAA efflux from Xenopus oocytes; assay type: cell-based; details: co-expressed with KIPK or KIPKL1; about 1 µM internal [3H]-IAA, labelled compound; outside pH 7.4, 21 °C
T4 sequence (Q9S7Z8 1-640): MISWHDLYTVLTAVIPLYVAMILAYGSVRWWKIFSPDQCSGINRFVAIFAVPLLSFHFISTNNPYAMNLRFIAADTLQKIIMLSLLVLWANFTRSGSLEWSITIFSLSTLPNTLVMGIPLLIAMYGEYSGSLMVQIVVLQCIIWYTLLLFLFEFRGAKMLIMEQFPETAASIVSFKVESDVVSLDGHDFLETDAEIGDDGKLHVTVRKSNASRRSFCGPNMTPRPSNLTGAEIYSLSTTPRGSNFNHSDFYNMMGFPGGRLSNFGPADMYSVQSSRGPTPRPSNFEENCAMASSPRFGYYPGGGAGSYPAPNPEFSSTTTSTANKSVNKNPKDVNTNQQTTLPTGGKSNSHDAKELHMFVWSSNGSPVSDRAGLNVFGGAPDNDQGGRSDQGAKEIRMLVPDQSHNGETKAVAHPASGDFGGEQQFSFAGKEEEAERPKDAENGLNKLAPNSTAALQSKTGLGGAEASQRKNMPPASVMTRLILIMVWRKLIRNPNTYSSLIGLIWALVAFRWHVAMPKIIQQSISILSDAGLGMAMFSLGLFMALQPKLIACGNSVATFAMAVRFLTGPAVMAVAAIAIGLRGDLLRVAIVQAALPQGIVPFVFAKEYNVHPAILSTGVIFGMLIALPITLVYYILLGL

| Compound | in vitro phosphorylation of GST-PIN3CL, autoradiography (KIPKL1) | in vitro phosphorylation of GST-PIN3CL, autoradiography (KIPK) | in vitro phosphorylation of GST-PIN3CL, autoradiography (KIPKL2) | [3H]-IAA efflux from Xenopus oocytes (PIN3) |
| --- | --- | --- | --- | --- |
| Nc1ncnc2c1ncn2[C@@H]1O[C@H](COP(=O)(O)OP(=O)(O)OP(=O)(O)O)[C@@H](O)[C@H]1O [ATP] | MBP-KIPK and MBP-KIPKL1 phosphorylated the GST- (glutathione-S-transferase-) tagged PIN3 cytoplasmic loop | MBP-KIPK and MBP-KIPKL1 phosphorylated the GST- (glutathione-S-transferase-) tagged PIN3 cytoplasmic loop | GST-PIN3CL phosphorylation by MBP-KIPKL2 was reproducibly comparatively less efficient | – |
| O=C(O)Cc1c[nH]c2ccccc12 [IAA] | – | – | – | PIN3-mediated auxin efflux was activated when PIN3 was co-expressed with KIPK or KIPKL1 |
